Test results taken from US8962647B1, “Conjugate of polyethylene gylcol and naloxone and pharmaceutical composition and use thereof” (Jenkem Technology Co., Ltd. (Tianjin), priority 2012, dated 2015).
pIC50: −log10 of the molar value.

Molecular target: T1, MOR receptors (Homo sapiens, UniProt P35372)
T1 construct: expressed in transfected cells; host or cells: CHO cells
Experiment: cell-based
Type: cell-based
Conditions: CHO cells stably expressing MOR/Gα16; calcium flux caused by known agonist DAMGO; fluorescence at 525 nm
Excerpt: A cell line co-transfected with MOR and Gα16 is established, such that activation of receptors can activate Ga16 protein, which in turn activates phospholipase C (PLC) to generate IP3 and DAG. IP3 can bind to IP3 receptors on endoplasmic reticulum and mitochondria in the cells, thereby triggering the release of intracellular calcium. Therefore, detection of intracellular calcium levels can be employed as a measure for detecting the activation state of MOR. Fluo-4/AM is a calcium fluorescent probe indicator for measuring calcium ions. It is a non-polar liposoluble compound, which, upon entering a cell and by the action of lipolytic enzymes, releases Fluo-4 while the AM moiety is dissociated. As a polar molecule, Fluo-4 cannot easily pass through the lipid bilayer membrane, thus it is retained in the cells for a long duration. Eventually, the level of activation of Gα proteins is reflected by measuring the intensity of fluorescence that is excited.
1. inoculating CHO cells stably expressing MOR/Gα16 in a 96-well plate and incubating the same overnight;
2. removing the medium from the wells inoculated with cells, adding freshly prepared dye (40 μl/well), and incubating for 40 minutes in a thermostatic incubator of 37° C.;
3. diluting the test substances with a calcium buffer and homogenizing; […]

T1 sequence (P35372 whole entry): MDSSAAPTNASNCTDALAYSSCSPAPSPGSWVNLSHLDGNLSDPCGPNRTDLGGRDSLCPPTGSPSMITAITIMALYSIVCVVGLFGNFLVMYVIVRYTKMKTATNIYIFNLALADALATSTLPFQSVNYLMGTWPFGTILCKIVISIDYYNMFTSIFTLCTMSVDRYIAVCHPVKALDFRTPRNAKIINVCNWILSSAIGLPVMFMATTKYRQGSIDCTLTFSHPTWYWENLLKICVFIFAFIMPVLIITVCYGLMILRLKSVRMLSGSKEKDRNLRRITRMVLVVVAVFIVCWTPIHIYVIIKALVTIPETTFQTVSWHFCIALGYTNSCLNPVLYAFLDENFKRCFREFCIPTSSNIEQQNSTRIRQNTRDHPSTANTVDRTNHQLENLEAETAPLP

| Structure (SMILES) | pIC50 |
| --- | --- |
| COC(=O)/C=C/C(=O)N[C@@H]1CC[C@@]2(O)[C@H]3Cc4ccc(O)c5c4[C@@]2(CCN3CC2CC2)[C@H]1O5 [Beta-FNA] | 8.58 |
| C=CCN1CC[C@]23c4c5ccc(O)c4O[C@H]2[C@@H](OCCOCCOCCOCCO[C@H]2CC[C@@]4(O)[C@H]6Cc7ccc(O)c8c7[C@@]4(CCN6CC=C)[C@H]2O8)CC[C@@]3(O)[C@H]1C5 [(α,α)-NAL24, double-end substituted tetraethylene glycol-naloxone] | 8.15 |
